Patent publication US7304057B2, “Substituted 6-membered N-heterocyclic compounds and method for their use as neurological regulator” (Institute of Pharmacology and Toxicology Accademy of …, priority 2001, dated 2007)

Assays:
[1] = tested on: mice sympathetic nerve endings damaged by 6-hydroxy-dopamine (6-OHDA); assay: adult mice sympathetic nerve endings damaged by 6-OHDA, residual noradrenaline in submaxillary glands; type: in vivo; settings: 5 mg/kg sc, 6-OHDA 8 mg/kg ip, Kunming female mice; FIG. 3, **P<0.01 vs model control group
Experimental: The neurotrophic activity of the compounds of the present invention can also be determined in several animal pharmacological models in vivo, such as the model of adult mice sympathetic nerve endings damaged by 6-hydroxy-dopamine (6-OHDA).
Kunming species female mice (♀) having a body weight of 18-22 g are randomly divided into the following groups: normal control group, model control group, FK506 (2 mg/kg) group, and the group of compound of the present invention (5 mg/kg) (10 mice per group). The mice are administrated with 6-OHDA (8 mg/kg) by intraperitoneal injection (ip) before 4 hours and after 4 continuous days of subcutaneous injection (sc) of the compound, while the control groups are administrated with the equivalent quantity of carrier by subcutaneous injection. After two weeks of the last administration, the mice are killed by luxation, and the two submaxillary glands of each of the mice are rapidly excised and weighed, placed in a glass grinder, then is homogenated with a homogenating liquid containing internal-standard, and centrifuged at 2000 g for 30 minutes. 20 μL of the obtained supernatant is directly injected in an HPLC-electrochemical detector to measure the content of noradrenaline (NE) in the submaxillary glands of the mice.

[2] = tested on: chick embryos dorsal root ganglia; assay: chick embryo dorsal root ganglion cultures free of serum, neurite process scoring; type: cell-based; settings: 48 h; for Average scoring: score 0-3 of neurite processes, average of 20 ganglia, NGF-only control 1.0
Experimental: The neurotrophic activity of compounds of the present invention can be determined through several biological models in vitro, e.g. the model of chick embryos dorsal root ganglion cultures free of serum in vitro.
In a sterile environment, dorsal root ganglia were dissected from chick embryos of 8 days gestation and inoculated in rat rail collagen coated culture bottles (5 to 6 dorsal root ganglia per bottle, and two bottles per dosage). After 1 hour of attachment in a 37° C., 5% CO2 incubator, NGF (0.30 ng/ml) containing culture medium free of serum (DMEM) and the compound of example 4 of the present invention were added. The control groups were treated only with the same amount of NGF and culture medium. […] The representative micrographic pictures showing that compound of example 4 promotes the growth of chick embryos dorsal root ganglia processes were give in FIG. 1. The results of illustrative compound of example 4 at different concentrations promoting the growth of chick embryos dorsal root ganglia processes were outlined in table 1, wherein the scoring is the average scoring of 20 ganglia.

Which results are given for `CCOC(=O)C(CC(C)C)NC(=O)[C@@H]1CSCCN1S(=O)(=O)c1ccc(C)cc1` (stereo partly drawn) [Example 4, 2-{[(3R)-4-(4-toluenesulfonyl)thiomorpholine-3-carbonyl]amino}-4-methyl-pentanoic acid ethyl ester]?
residual NE level in the submaxillary glands [1]: raise the residual NE level in the submaxillary glands of the mice; Average scoring ([2]; 0.1 pM compound + NGF (0.3 ng/mL)): 2.15; Average scoring ([2]; 1.0 pM compound + NGF (0.3 ng/mL)): 2.16; Average scoring ([2]; 10 pM compound + NGF (0.30 ng/mL)): 1.50; growth of chick embryos dorsal root ganglia processes ([2]; concentration of from 0.1 to 1.0 pmol/L, with NGF (0.30 ng/ml)): promote the growth of chick embryos dorsal root ganglia processes
